From patent US12138320B2, “Composition and methods for tumor imaging and treatment” (The University of Chicago, priority 2020, dated 2024)

Biological target: T1, NCEH1 (Homo sapiens, UniProt Q6PIU2)
T1 construct: serine hydrolase activity in membrane proteome fractions of MDA-MB231 breast cancer cells treated with the indicated concentrations; endogenous in cells; host or cells: PC3 prostate cancer cells; MDA-MB231 breast cancer cells
T1 sequence (Q6PIU2 1-408): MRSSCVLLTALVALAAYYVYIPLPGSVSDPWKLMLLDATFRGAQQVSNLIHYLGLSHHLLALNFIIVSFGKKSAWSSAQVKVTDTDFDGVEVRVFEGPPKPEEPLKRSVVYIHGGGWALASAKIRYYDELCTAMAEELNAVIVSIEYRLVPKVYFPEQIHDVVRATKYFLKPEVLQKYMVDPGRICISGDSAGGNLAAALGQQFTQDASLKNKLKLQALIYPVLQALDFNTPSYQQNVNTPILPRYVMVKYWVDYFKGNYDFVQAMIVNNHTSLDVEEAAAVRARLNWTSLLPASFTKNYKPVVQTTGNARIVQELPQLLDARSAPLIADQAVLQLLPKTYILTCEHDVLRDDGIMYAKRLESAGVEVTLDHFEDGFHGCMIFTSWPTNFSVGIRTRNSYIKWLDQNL
Experiment: Gel-based competitive ABPP (FP-Rho) of cancer cells treated in situ (live cells)
Format: cell-based
Conditions: live cells
Experimental: Proteome Preparation: Human PC3 and MDA-MB231 cells were grown in Roswell Park Memorial Institute (RPMI) medium and Dulbecco's Modified Eagle Medium (DMEM), respectively, supplemented with 10% fetal bovine serum (FBS) and 2 mM L-glutamine, and cultured in a humidified 5% CO2 incubator at 37° C. Cells were washed twice with phosphate buffered saline (PBS, pH 7.5), collected by scraping, resuspended in 0.2 ml PBS, sonicated, and fractionated via centrifugation (100,000×g, 45 min) into a pellet (containing membrane proteins) and supernatant (containing soluble proteins). For murine proteomes, mouse tissues were Dounce-homogenized on ice in cold PBS, followed by a low-speed spin (1,400×g, 5 min) to remove debris. After sonication, the membrane and soluble proteomes were fractionated as described above. All sample pellets were washed and resuspended in PBS via sonication. Protein concentrations were determined using a Bradford protein assay kit (Bio-Rad, Hercules, California, United States of America)). Samples were stored at −80° C. until use.
Cellular JW199 Treatments: JW199 was dissolved in dimethyl sulfoxide (DMSO) vehicle, which was diluted into media or buffer before addition to cells or proteomes, respectively. For in vitro proteome experiments, the final DMSO concentration was 4%. For live cell (in situ) treatments, 2×10^6 cells were seeded in 6 cm dishes (100% confluency) 24 hours prior to JW199 treatment in serum-free media. At the end of the experiment, cells were washed and collected, as described above, for gel-based activity profiling.
Gel-based Activity Profiling: Cell lysates were treated with 1 μM fluorophosphonate-rhodamine (FP-rho) for 30 min at room temperature (50 μL total reaction volume). Reactions were quenched with one volume of standard 4× sodium dodecyl sulfate/polyacrylamide gel electrophoresis (SDS/PAGE) reducing sample buffer, resolved on 10% acrylamide SDS/PAGE gels, and visualized in-gel with a fluorescence scanner sold under the tradename CHEMIDOC™ MP (Bio-Rad, Hercules, California, United States of America). Densitometric quantification of band intensities were used to calculate the percent inhibition via JW199. 50% inhibitory concentration (IC50) values were determined from dose-response curves constructed in GraphPad Prism software from three independent replicates for each inhibitor concentration. For competitive ABPP with JW576, tumor lysates were treated with 1 μM JW576 for 30 min at 37° C. (50 μL total reaction volume). Competitive ABPP was then conducted as described above. NCEH1 activity was calculated by densitometric quantification (ImageJ software; National Institutes of Health (NIH), Bethesda, Maryland, United States of America) of JW576-labeled band intensity (BODIPY fluorescence) from three independent replicates.

## CC(C)c1ccccc1OC(=O)NCCc1ccc(OCC[18F])cc1 [[^18F]JW199, fluorine-18-labeled 2-isopropylphenyl-(4-(2-fluoroethoxy)phenethyl)carbamate]
  concentrations at which active NCEH1 is labeled in live cells: nM concentrations
